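Following 48 hours of exposure in 96-well plates, responses at five concentrations were used to interpolate endpoints linearly. Definition used: TGI = concentration required for complete inhibition of growth.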
Tests used:
Experiment in all cases: inhibition of tumour cell growth, NCI panel, 48 h
[1] = system: 786-0 renal
[2] = system: A498 renal
[3] = system: A549 NSCLC
[4] = system: ACHN renal
[5] = system: BT-549 breast
[6] = system: CAKI-1 renal
[7] = system: CCRF-CEM leukemia
[8] = system: COLO 205 colon
[9] = system: DU-145 prostate
[10] = system: EKVX NSCLC
[11] = system: HCC-2998 colon
[12] = system: HCT-116 colon
[13] = system: HCT-15 colon
[14] = system: HL-60(TB) leukemia
[15] = system: HOP-62 NSCLC
[16] = system: HOP-92 NSCLC
[17] = system: HS 578T breast
[18] = system: HT29 colon
[19] = system: IGROV1 ovarian
[20] = system: K-562 leukemia
[21] = system: KM12 colon
[22] = system: LOX IMVI melanoma
[23] = system: M14 melanoma
[24] = system: MALME-3M melanoma
[25] = system: MCF7 breast
[26] = system: MDA-MB-231 breast
[27] = system: MDA-MB-435
[28] = system: MDA-N
[29] = system: MOLT-4 leukemia
[30] = system: NCI-H226 lung
[31] = system: NCI-H23 lung
[32] = system: NCI-H460 lung
[33] = system: NCI-H522 lung
[34] = system: NCI/ADR-RES ovarian
[35] = system: OVCAR-3 ovarian
[36] = system: OVCAR-4 ovarian
[37] = system: OVCAR-5 ovarian
[38] = system: OVCAR-8 ovarian
[39] = system: PC-3 prostate
[40] = system: RPMI-8226 leukemia
[41] = system: RXF 393 renal
[42] = system: SF-268 CNS
[43] = system: SF-295 CNS
[44] = system: SF-539 CNS
[45] = system: SK-MEL-2 melanoma
[46] = system: SK-MEL-28 melanoma
[47] = system: SK-MEL-5 melanoma
[48] = system: SK-OV-3 ovarian
[49] = system: SN12C renal
[50] = system: SNB-19 CNS
[51] = system: SNB-75 CNS
[52] = system: SR leukemia
[53] = system: SW-620 colon
[54] = system: T-47D breast
[55] = system: TK-10 renal
[56] = system: U251 CNS
[57] = system: UACC-257 melanoma
[58] = system: UACC-62 melanoma
[59] = system: UO-31 renal

`O=c1c2c(no[n+]2[O-])c2ccccc2n1-c1ccccc1` was tested, and the TGI [1] was 9.97 µM, the TGI [2] was 22.2 µM and the TGI [3] was 35.1 µM. For the same compound, the TGI [4] was 42.7 µM, the TGI [5] was 8.56 µM and the TGI [6] was 6.39 µM. For the same compound, the TGI [7] was 7.21 µM, the TGI [8] was 20.3 µM and the TGI [9] was > 74.2 µM. It also gave a TGI [10] of 24.5 µM, a TGI [11] of 20.6 µM and a TGI [12] of 6.73 µM. For the same compound, the TGI [13] was 8.76 µM, the TGI [14] was 15.3 µM and the TGI [15] was 22.5 µM. The TGI [16] was 17.6 µM, the TGI [17] was 39.1 µM and the TGI [18] was 15.5 µM. For the same compound, the TGI [19] was 10 µM, the TGI [20] was > 46.4 µM and the TGI [21] was 22 µM. It also gave a TGI [22] of 7.28 µM, a TGI [23] of 8.25 µM and a TGI [24] of 14.5 µM. The TGI [25] was 15.6 µM, the TGI [26] was 24.8 µM and the TGI [27] was 14.6 µM. For the same compound, the TGI [28] was 9.56 µM, the TGI [29] was 26.6 µM and the TGI [30] was 30.7 µM. For the same compound, the TGI [31] was 5.53 µM, the TGI [32] was 21.4 µM and the TGI [33] was 3.27 µM. For the same compound, the TGI [34] was 21.6 µM, the TGI [35] was 19.8 µM and the TGI [36] was > 46.4 µM. The TGI [37] was 21.9 µM, the TGI [38] was 11.1 µM and the TGI [39] was 21.4 µM. The TGI [40] was 42.8 µM, the TGI [41] was 14.7 µM and the TGI [42] was 20.1 µM. It also gave a TGI [43] of 23.5 µM, a TGI [44] of 16 µM and a TGI [45] of 18.8 µM. The TGI [46] was 17 µM, the TGI [47] was 20 µM and the TGI [48] was 21.7 µM. For the same compound, the TGI [49] was 17.2 µM, the TGI [50] was 25 µM and the TGI [51] was 19.2 µM. For the same compound, the TGI [52] was > 27.3 µM, the TGI [53] was 7.54 µM and the TGI [54] was 23.6 µM. For the same compound, the TGI [55] was 27.2 µM, the TGI [56] was 16.1 µM and the TGI [57] was 22 µM. The TGI [58] was 13.7 µM and the TGI [59] was 16.6 µM.
In the case of `O=[N+]([O-])c1cc2oc(CSc3ccccc3)nc2cc1Cl`, the TGI [1] is reported as > 100 µM, the TGI [2] is reported as 59.2 µM and the TGI [3] is reported as > 100 µM. For the same compound, the TGI [4] was > 100 µM, the TGI [5] was 80.8 µM and the TGI [6] was > 100 µM. The TGI [7] was > 100 µM, the TGI [8] was 44.9 µM and the TGI [9] was > 100 µM. For the same compound, the TGI [10] was > 100 µM, the TGI [11] was 64.5 µM and the TGI [12] was > 100 µM. The TGI [13] was > 100 µM, the TGI [14] was > 100 µM and the TGI [15] was > 100 µM. The TGI [16] was > 100 µM, the TGI [17] was > 100 µM and the TGI [18] was > 100 µM. For the same compound, the TGI [19] was > 100 µM, the TGI [20] was > 100 µM and the TGI [21] was > 100 µM. For the same compound, the TGI [22] was > 100 µM, the TGI [23] was > 100 µM and the TGI [24] was > 100 µM. For the same compound, the TGI [25] was > 100 µM, the TGI [26] was 76.9 µM and the TGI [27] was > 100 µM. The TGI [28] was > 100 µM, the TGI [29] was > 100 µM and the TGI [30] was 91.1 µM. The TGI [31] was 88.6 µM, the TGI [32] was 81.2 µM and the TGI [33] was > 100 µM. The TGI [34] was 40 µM, the TGI [35] was 73.9 µM and the TGI [36] was > 100 µM. For the same compound, the TGI [37] was > 100 µM, the TGI [38] was > 100 µM and the TGI [39] was > 100 µM. For the same compound, the TGI [40] was > 100 µM, the TGI [41] was 93 µM and the TGI [42] was > 100 µM. For the same compound, the TGI [43] was 93.9 µM, the TGI [44] was > 100 µM and the TGI [45] was 51.4 µM. For the same compound, the TGI [46] was > 100 µM, the TGI [47] was 33.7 µM and the TGI [48] was 78.7 µM. For the same compound, the TGI [49] was > 100 µM, the TGI [50] was > 100 µM and the TGI [51] was 67.5 µM. The TGI [52] was > 100 µM, the TGI [53] was > 100 µM and the TGI [54] was > 100 µM. For the same compound, the TGI [55] was > 100 µM, the TGI [56] was 66.6 µM and the TGI [57] was 82.2 µM. The TGI [58] was > 100 µM and the TGI [59] was 87.3 µM.
`CCOC(=O)C(NC(=O)CC)(N1CCN(c2cc3c(cc2F)c(=O)c(C(=O)O)cn3C2CC2)CC1)C(F)(F)F` (configuration not stated) was tested, and the TGI [1] was > 100 µM, the TGI [2] was > 100 µM and the TGI [3] was > 100 µM. For the same compound, the TGI [4] was > 100 µM, the TGI [5] was > 100 µM and the TGI [6] was > 100 µM. For the same compound, the TGI [7] was > 100 µM, the TGI [8] was > 100 µM and the TGI [9] was > 100 µM. For the same compound, the TGI [10] was > 100 µM, the TGI [11] was > 100 µM and the TGI [12] was > 100 µM. For the same compound, the TGI [13] was > 100 µM, the TGI [14] was > 100 µM and the TGI [15] was > 100 µM. For the same compound, the TGI [16] was > 100 µM, the TGI [17] was > 100 µM and the TGI [18] was > 100 µM. For the same compound, the TGI [19] was > 100 µM, the TGI [20] was > 100 µM and the TGI [21] was > 100 µM. The TGI [22] was > 100 µM, the TGI [23] was > 100 µM and the TGI [24] was > 100 µM. For the same compound, the TGI [25] was > 100 µM, the TGI [26] was > 100 µM and the TGI [27] was > 100 µM. The TGI [28] was > 100 µM, the TGI [29] was > 100 µM and the TGI [30] was > 100 µM. The TGI [31] was > 100 µM, the TGI [32] was > 100 µM and the TGI [33] was > 100 µM. For the same compound, the TGI [34] was > 100 µM, the TGI [35] was > 100 µM and the TGI [36] was > 100 µM. The TGI [37] was > 100 µM, the TGI [38] was > 100 µM and the TGI [39] was > 100 µM. The TGI [40] was > 100 µM, the TGI [41] was > 100 µM and the TGI [42] was > 100 µM. For the same compound, the TGI [43] was > 100 µM, the TGI [44] was > 100 µM and the TGI [45] was > 100 µM. For the same compound, the TGI [46] was > 100 µM, the TGI [47] was > 100 µM and the TGI [48] was > 100 µM. The TGI [49] was > 100 µM, the TGI [50] was > 100 µM and the TGI [51] was > 100 µM. For the same compound, the TGI [52] was > 100 µM, the TGI [53] was > 100 µM and the TGI [54] was > 100 µM. For the same compound, the TGI [55] was > 100 µM, the TGI [56] was > 100 µM and the TGI [57] was > 100 µM. For the same compound, the TGI [58] was > 100 µM and the TGI [59] was > 100 µM.
